These results are taken from patent publication US8148391B2 (Cephalon, Inc., priority 2006, dated 2012).

Where two headings read alike, the source gives them in different places. Some results are limits rather than exact numbers.

Assay [1] deals with T1, baculovirus-expressed ALK (Homo sapiens, UniProt Q9UM73).
T1 construct: host or cells: baculovirus expression system
Put plainly: ALK Kinase Assay (ELISA-type, time-resolved fluorescence). The format is biochemical. In a few lines:
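Plates coated with phospholipase C-γ substrate (10 μg/mL in TBS); reaction started with 30 ng/ml ALK and run 15 min at 37° C. Phosphorylated substrate detected with Eu-N1-labeled PT66 antibody. IC50 from sigmoidal variable-slope fit of percent inhibition vs log concentration.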
For orientation: ELISA stands for enzyme-linked immunosorbent assay.

In assay [2] the target is T2, c-Met (cytoplasmic domain) (Homo sapiens, UniProt P08581).
T2 construct: 10 ng/mL c-Met (cytoplasmic domain, Invitrogen Corporation #PV3143); purchased Invitrogen Corporation PV3143
T2 sequence (P08581 956-1390 limits assumed): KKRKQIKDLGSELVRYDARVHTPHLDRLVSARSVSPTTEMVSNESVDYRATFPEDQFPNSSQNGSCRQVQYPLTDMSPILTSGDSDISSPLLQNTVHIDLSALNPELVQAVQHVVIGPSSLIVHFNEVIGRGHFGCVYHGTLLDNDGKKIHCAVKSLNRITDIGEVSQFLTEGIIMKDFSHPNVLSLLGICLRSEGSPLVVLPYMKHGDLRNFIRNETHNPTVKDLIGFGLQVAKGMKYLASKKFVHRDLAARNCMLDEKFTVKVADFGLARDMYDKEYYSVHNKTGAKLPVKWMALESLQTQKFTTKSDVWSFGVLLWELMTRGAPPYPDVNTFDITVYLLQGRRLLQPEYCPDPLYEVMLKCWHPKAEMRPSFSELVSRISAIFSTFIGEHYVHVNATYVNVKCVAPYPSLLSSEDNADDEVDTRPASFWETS
Description: c-Met Kinase Assay (same methods as for ALK, with modifications). In kind it is biochemical. In a few lines: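 Europium-labeled PT66 antibody (Eu-N1) detects substrate phosphorylation on wells coated with phospholipase C-γ at 10 μg/mL. The kinase, the cytoplasmic domain of c-Met at 10 ng/mL, starts the reaction, which proceeds 15 minutes at 37° C.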

Where [3] appears, read: ALK kinase inhibition, 1 μM ATP, read-out: ALK Activity.
[4] abbreviates: c-Met kinase inhibition, 1 μM ATP, read-out: cMet Activity.
Where [5] appears, read: 1 μM ATP (Km level), read-out: ALK Activity (ALK Kinase Inhibition, IC50).
[6] abbreviates: 1 μM ATP (Km level), read-out: cMet Activity (c-Met Kinase Inhibition, IC50).
Where [7] appears, read: ALK kinase inhibition, 1 μM ATP (Km level), read-out: ALK Activity.
The mark [8] stands for this setting: c-Met kinase inhibition, 1 μM ATP (Km level), read-out: cMet Activity.
The mark [9] stands for this setting: 1 μM ATP (Km level), 30 ng/ml ALK, 37° C., 15 minutes, read-out: ALK Activity (ALK kinase inhibition, IC50 class).
Where [10] appears, read: 1 μM ATP (Km level), 10 ng/mL c-Met, read-out: cMet Activity (c-Met kinase inhibition, IC50 class).

T1 sequence (Q9UM73 19-1620): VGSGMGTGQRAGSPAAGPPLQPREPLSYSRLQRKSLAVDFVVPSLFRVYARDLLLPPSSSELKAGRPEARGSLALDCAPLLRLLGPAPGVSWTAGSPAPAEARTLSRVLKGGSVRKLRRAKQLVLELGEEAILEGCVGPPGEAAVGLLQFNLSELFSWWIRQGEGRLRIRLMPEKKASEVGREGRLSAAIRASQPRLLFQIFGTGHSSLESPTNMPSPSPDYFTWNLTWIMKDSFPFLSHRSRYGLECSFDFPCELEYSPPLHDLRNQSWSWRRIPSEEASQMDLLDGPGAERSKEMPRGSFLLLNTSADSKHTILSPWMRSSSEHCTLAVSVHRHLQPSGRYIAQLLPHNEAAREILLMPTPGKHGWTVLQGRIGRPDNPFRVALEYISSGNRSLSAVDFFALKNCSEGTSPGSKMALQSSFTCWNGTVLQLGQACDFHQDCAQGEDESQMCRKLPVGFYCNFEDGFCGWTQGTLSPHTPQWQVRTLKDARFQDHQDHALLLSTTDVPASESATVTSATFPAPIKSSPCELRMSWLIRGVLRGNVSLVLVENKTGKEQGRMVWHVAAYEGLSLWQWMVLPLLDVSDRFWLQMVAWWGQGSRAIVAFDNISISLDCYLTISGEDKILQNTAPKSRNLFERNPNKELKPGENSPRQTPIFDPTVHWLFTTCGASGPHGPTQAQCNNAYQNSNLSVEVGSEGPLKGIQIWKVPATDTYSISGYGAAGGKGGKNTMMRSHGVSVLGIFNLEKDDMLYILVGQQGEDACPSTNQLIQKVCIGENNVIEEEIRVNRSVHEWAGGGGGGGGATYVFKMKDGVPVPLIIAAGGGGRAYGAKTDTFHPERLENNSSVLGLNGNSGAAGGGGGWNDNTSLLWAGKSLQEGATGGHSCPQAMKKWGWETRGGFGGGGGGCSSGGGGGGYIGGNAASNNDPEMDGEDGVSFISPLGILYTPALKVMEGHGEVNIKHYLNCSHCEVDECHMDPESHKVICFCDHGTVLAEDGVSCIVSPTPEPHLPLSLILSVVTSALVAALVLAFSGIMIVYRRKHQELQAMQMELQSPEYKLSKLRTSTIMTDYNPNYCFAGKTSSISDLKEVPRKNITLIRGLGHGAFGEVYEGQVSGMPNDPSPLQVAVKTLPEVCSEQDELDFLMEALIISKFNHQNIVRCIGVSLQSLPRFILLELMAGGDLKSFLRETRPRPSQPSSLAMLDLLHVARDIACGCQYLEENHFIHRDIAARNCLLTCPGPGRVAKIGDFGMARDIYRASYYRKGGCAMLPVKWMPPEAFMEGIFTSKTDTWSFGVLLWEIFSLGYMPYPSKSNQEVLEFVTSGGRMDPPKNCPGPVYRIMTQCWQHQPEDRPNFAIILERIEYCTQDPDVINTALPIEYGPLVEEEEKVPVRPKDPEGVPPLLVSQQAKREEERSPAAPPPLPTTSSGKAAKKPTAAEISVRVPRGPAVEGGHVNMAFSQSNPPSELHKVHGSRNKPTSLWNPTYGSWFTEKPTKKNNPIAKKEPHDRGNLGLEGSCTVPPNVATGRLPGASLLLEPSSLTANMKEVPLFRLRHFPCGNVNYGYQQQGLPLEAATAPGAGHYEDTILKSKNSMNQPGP

As for `COc1cc2c(cc1Nc1ncc(Cl)c(N[C@H]3[C@@H](C(N)=O)[C@@H]4C=C[C@H]3C4)n1)CCN(C[C@@H](C)O)CC2` [Example 1559, (1S,2S,3R,4R)-3-{5-Chloro-2-[3-((R)-2-hydroxy-propyl)-8-methoxy-2,3,4,5-tetrahydro-1H-3-benzazepin-7-ylamino]-pyrimidin-4-ylamino}-bicyclo[2.2.1]hept-5-ene-2-carboxylic acid amide], the results for the IC50 in assay [1] (setting [3]) and in assay [2] (setting [4]) were less than 100 nM and more than 10000 nM, respectively.

Regarding `COc1ccccc1Nc1nc(Nc2ccc3c(c2)CCC(N2CCN(C)CC2)CC3)ncc1Cl` (centres unmarked) [Example 891, 5-Chloro-N*4*-(2-methoxy-phenyl)-N*2*-[7-(4-methyl-piperazin-1-yl)-6,7,8,9-tetrahydro-5H-benzocyclohepten-2-yl]-pyrimidine-2,4-diamine], the IC50 was less than 100 nM in assay [1] (setting [5]) and 1000 to 10000 nM in assay [2] (setting [6]).

As for `CCN1CCN(CC)c2cc(Nc3ncc(Cl)c(N[C@@H]4CCCC[C@H]4NS(C)(=O)=O)n3)c(Cl)cc2C1` [Example 427, N-{(1R,2R)-2-[5-Chloro-2-(7-chloro-1,4-diethyl-2,3,4,5-tetrahydro-1H-benzo[e][1,4]diazepin-8-ylamino)-pyrimidin-4-ylamino]-cyclohexyl}-methanesulfonamide], the IC50 in assay [1] (setting [7]) was less than 100 nM; in assay [2] (setting [8]), more than 10000 nM.

In the case of `C#CCNC(=O)c1cccc(F)c1Nc1nc(Nc2ccc3c(c2)N(CCN(C)C)CCCC3(C)C)ncc1Cl` [Example 1639, 2-{5-Chloro-2-[1-(2-dimethylamino-ethyl)-5,5-dimethyl-2,3,4,5-tetrahydro-1H-benzo[b]azepin-8-ylamino]-pyrimidin-4-ylamino}-3-fluoro-N-prop-2-ynyl-benzamide], the IC50 in assay [1] (setting [3]) is less than 100 nM; in assay [2] (setting [4]), 100 to 1000 nM.

With `CNC(=O)c1cc(C)cc(C)c1Nc1nc(Nc2ccc3c(c2)CN(C)C(=O)CC3)ncc1Cl` [Example 1801, 2-[5-Chloro-2-(2-methyl-3-oxo-2,3,4,5-tetrahydro-1H-benzo[c]azepin-8-ylamino)-pyrimidin-4-ylamino]-3,5,N-trimethyl-benzamide], the IC50 in assay [1] (setting [3]) was 1000 to 10000 nM; in assay [2] (setting [4]), more than 10000 nM.

Turning to `CNC(=O)c1ccccc1Nc1nc(Nc2ccc3c(c2)CCCC(=O)N3CCOC)ncc1C(F)(F)F` [Example 921, 2-{2-[1-(2-Methoxyethyl)-2-oxo-2,3,4,5-tetrahydro-1H-benzo[b]azepin-7-ylamino]-5-trifluoromethylpyrimidin-4-ylamino}-N-methylbenzamide], the IC50 in assay [1] (setting [5]) and in assay [2] (setting [6]) was less than 100 nM each time.

Turning to `CCN1CCc2ccc(Nc3ncc(Cl)c(Nc4cc(Cl)ccc4C(=O)NC)n3)cc2CC1` [Example 33, 4-Chloro-2-[5-chloro-2-(3-ethyl-2,3,4,5-tetrahydro-1H-benzo[d]azepin-7-ylamino)-pyrimidin-4-ylamino]-N-methyl-benzamide], the IC50 in assay [1] (setting [7]) and in assay [2] (setting [8]) was less than 100 nM in each case.

For the compound `CNC(=O)c1ccccc1Nc1nc(Nc2cc3c(cc2OC)NC(=O)CCC3(C)C)ncc1Cl` [Example 1671, 2-[5-Chloro-2-(8-methoxy-5,5-dimethyl-2-oxo-2,3,4,5-tetrahydro-1H-benzo[b]azepin-7-ylamino)-pyrimidin-4-ylamino]-N-methyl-benzamide], the IC50 in assay [1] (setting [3]) was less than 100 nM; in assay [2] (setting [4]), 1000 to 10000 nM.

For the compound `COc1cc2c(cc1Nc1ncc(Cl)c(Nc3ccc(N4CCN(C(C)C)CC4)c4c3C(=O)N(C)C4)n1)CCN(CC(=O)N(C)C)CC2` [Example 951, 2-(7-{5-Chloro-4-[7-(4-isopropyl-piperazin-1-yl)-2-methyl-3-oxo-2,3-dihydro-1H-isoindol-4-ylamino]-pyrimidin-2-ylamino}-8-methoxy-1,2,4,5-tetrahydro-3-benzazepin-3-yl)-N,N-dimethyl-acetamide], the IC50 in assay [1] (setting [5]) was less than 100 nM; in assay [2] (setting [6]), more than 10000 nM.

Consider `CNC(=O)CN1CCc2cc(Nc3ncc(Cl)c(Nc4ccccc4OC)n3)c(OC)cc2CC1` [Example 1135, 2-{7-[5-Chloro-4-(2-methoxy-phenylamino)-pyrimidin-2-ylamino]-8-methoxy-1,2,4,5-tetrahydro-benzo[d]azepin-3-yl}-N-methyl-acetamide], for which the values for the IC50 in assay [1] (setting [9]) and in assay [2] (setting [10]) were less than 100 nM and more than 10000 nM, respectively.

Turning to `CNC(=O)c1ccccc1Nc1nc(Nc2ccc3c(c2)CCC(N2CCOCC2)CC3)ncc1C(F)(F)F` (centres unmarked) [Example 923, N-Methyl-2-[2-(7-morpholin-4-yl-6,7,8,9-tetrahydro-5H-benzocyclohepten-2-ylamino)-5-trifluoromethyl-pyrimidin-4-ylamino]-benzamide], the IC50 in assay [1] (setting [5]) and in assay [2] (setting [6]) was less than 100 nM throughout.

Regarding `NC(=O)c1cccc(F)c1Nc1nc(Nc2ccc3c(c2)NC(=O)CCC3)ncc1Cl` [Example 1256, 2-[5-Chloro-2-(2-oxo-2,3,4,5-tetrahydro-1H-1-benzazepin-8-ylamino)-pyrimidin-4-ylamino]-3-fluoro-benzamide], the IC50 in assay [1] (setting [9]) was in the range of 100 to 1000 nM; in assay [2] (setting [10]), 1000 to 10000 nM.

For the compound `COc1cc2c(cc1Nc1ncc(Cl)c(Nc3ccccc3S(=O)(=O)N(C)C)n1)CCN(CC(=O)N(C)C)CC2` [Example 1141, 2-{7-[5-Chloro-4-(2-dimethylsulfamoyl-phenylamino)-pyrimidin-2-ylamino]-8-methoxy-1,2,4,5-tetrahydro-benzo[d]azepin-3-yl}-N,N-dimethyl-acetamide], the values for the IC50 in assay [1] (setting [9]) and in assay [2] (setting [10]) were less than 100 nM and 1000 to 10000 nM, respectively.

Take `COCCNC1CCc2cc(Nc3ncc(Cl)c(Nc4ccccc4S(=O)(=O)N(C)C)n3)c(OC)cc2CC1` (centres unmarked) [Example 1083, 2-{5-Chloro-2-[3-methoxy-7-(2-methoxy-ethylamino)-6,7,8,9-tetrahydro-5H-benzocyclohepten-2-ylamino]-pyrimidin-4-ylamino}-N,N-dimethyl-benzenesulfonamide]: the IC50 in assay [1] (setting [9]) is less than 100 nM; in assay [2] (setting [10]), 1000 to 10000 nM.

As to `CNC(=O)c1cc(F)ccc1Nc1nc(Nc2ccc3c(c2)CN(C)C(=O)CC3)ncc1Cl` [Example 1809, 2-[5-Chloro-2-(2-methyl-3-oxo-2,3,4,5-tetrahydro-1H-benzo[c]azepin-8-ylamino)-pyrimidin-4-ylamino]-5-fluoro-N-methyl-benzamide], the IC50 in assay [1] (setting [3]) and in assay [2] (setting [4]) was 1000 to 10000 nM throughout.

For the compound `COc1cc2c(cc1Nc1ncc(Cl)c(Nc3ccc(N4CCOCC4)cc3OC)n1)CCN(CC(=O)N1CCOCC1)CC2` [Example 1526, 2-{7-[5-Chloro-4-(2-methoxy-4-morpholin-4-yl-phenylamino)-pyrimidin-2-ylamino]-8-methoxy-1,2,4,5-tetrahydro-3-benzazepin-3-yl}-1-morpholin-4-yl-ethanone], the IC50 was less than 100 nM in assay [1] (setting [3]) and more than 10000 nM in assay [2] (setting [4]).

With `CC(C)(F)CN1CCc2ccc(Nc3ncc(Cl)c(N[C@@H]4CCCC[C@H]4NS(C)(=O)=O)n3)cc2CC1` [Example 40, N-((1R,2R)-2-{5-Chloro-2-[3-(2-fluoro-2-methyl-propyl)-2,3,4,5-tetrahydro-1H-benzo[d]azepin-7-ylamino]-pyrimidin-4-ylamino}-cyclohexyl)-methanesulfonamide], the IC50 in assay [1] (setting [7]) is less than 100 nM; in assay [2] (setting [8]), 1000 to 10000 nM.

On to `CNC(=O)c1ccccc1Nc1nc(Nc2ccc3c(c2)CCN(C(=O)N(C)C)CC3)ncc1Cl` [Example 327, 7-[5-Chloro-4-(2-methylcarbamoyl-phenylamino)-pyrimidin-2-ylamino]-1,2,4,5-tetrahydro-benzo[d]azepine-3-carboxylic acid dimethylamide], for which the IC50 in assay [1] (setting [7]) and in assay [2] (setting [8]) was less than 100 nM throughout.

With `COCCN1CCc2ccc(Nc3ncc(Cl)c(Nc4ccccc4-c4nccs4)n3)cc2CC1` [Example 979, 5-Chloro-N*2*-[3-(2-methoxy-ethyl)-2,3,4,5-tetrahydro-1H-benzo[d]azepin-7-yl]-N*4*-(2-thiazol-2-yl-phenyl)-pyrimidine-2,4-diamine], the IC50 was less than 100 nM in assay [1] (setting [5]) and 100 to 1000 nM in assay [2] (setting [6]).

As for `CCNC(=O)c1cccc(F)c1Nc1nc(Nc2ccc3c(c2)NC(=O)CCC3(C)C)ncc1Cl` [Example 1575, 2-[5-Chloro-2-(5,5-dimethyl-2-oxo-2,3,4,5-tetrahydro-1H-benzo[b]azepin-8-ylamino)-pyrimidin-4-ylamino]-N-ethyl-3-fluoro-benzamide], the IC50 in assay [1] (setting [3]) and in assay [2] (setting [4]) was less than 100 nM each time.

In the case of `CCN1C(=O)C(NC(=O)C(F)(F)F)CCc2c1ccc(Nc1ncc(Cl)c(Nc3ccccc3S(=O)(=O)N(C)C)n1)c2OC` (centres unmarked) [Example 1334, N-{7-[5-Chloro-4-(2-dimethylsulfamoyl-phenylamino)-pyrimidin-2-ylamino]-1-ethyl-6-methoxy-2-oxo-2,3,4,5-tetrahydro-1H-benzo[b]azepin-3-yl}-2,2,2-trifluoro-acetamide], the values for the IC50 in assay [1] (setting [9]) and in assay [2] (setting [10]) were less than 100 nM and more than 10000 nM, respectively.

`CNC(=O)c1ccccc1Nc1nc(Nc2ccc3c(c2)COCCN3C)ncc1Cl` [Example 15, 2-[5-Chloro-2-(1-methyl-1,2,3,5-tetrahydro-benzo[e][1,4]oxazepin-7-ylamino)-pyrimidin-4-ylamino]-N-methyl-benzamide]: the IC50 in assay [1] (setting [7]) and in assay [2] (setting [8]) was less than 100 nM throughout.
